Columns and labels:
SW-620 = experiment: Antiproliferative activity against human SW-620 cells measured after 48 hrs by SRB assay; type: functional, cell-based
HOP-62 = experiment: Antiproliferative activity against human HOP-62 cells measured after 48 hrs by SRB assay; type: functional, cell-based
HL-60(TB) = experiment: Antiproliferative activity against human HL-60(TB) cells measured after 48 hrs by SRB assay; type: functional, cell-based
MCF7 = experiment: Antiproliferative activity against human MCF7 cells measured after 48 hrs by SRB assay; type: functional, cell-based
SF-268 = experiment: Antiproliferative activity against human SF-268 cells measured after 48 hrs by SRB assay; type: functional, cell-based
HCT-116 = experiment: Antiproliferative activity against human HCT-116 cells measured after 48 hrs by SRB assay; type: functional, cell-based
HT-29 = experiment: Antiproliferative activity against human HT-29 cells measured after 48 hrs by SRB assay; type: functional, cell-based
NCI-H322M = experiment: Antiproliferative activity against human NCI-H322M cells measured after 48 hrs by SRB assay; type: functional, cell-based
A549 = experiment: Antiproliferative activity against human A549 cells measured after 48 hrs by SRB assay; type: functional, cell-based
SF-539 = experiment: Antiproliferative activity against human SF-539 cells measured after 48 hrs by SRB assay; type: functional, cell-based
SN12C = experiment: Antiproliferative activity against human SN12C cells measured after 48 hrs by SRB assay; type: functional, cell-based
CCRF-CEM = experiment: Antiproliferative activity against human CCRF-CEM cells measured after 48 hrs by SRB assay; type: functional, cell-based
M14 = experiment: Antiproliferative activity against human M14 cells measured after 48 hrs by SRB assay; type: functional, cell-based
NCI-H23 = experiment: Antiproliferative activity against human NCI-H23 cells measured after 48 hrs by SRB assay; type: functional, cell-based
DU-145 = experiment: Antiproliferative activity against human DU-145 cells measured after 48 hrs by SRB assay; type: functional, cell-based
MDA-MB-231 = experiment: Antiproliferative activity against human MDA-MB-231 cells measured after 48 hrs by SRB assay; type: functional, cell-based
IGROV-1 = experiment: Antiproliferative activity against human IGROV-1 cells measured after 48 hrs by SRB assay; type: functional, cell-based
CAKI-1 = experiment: Antiproliferative activity against human CAKI-1 cells measured after 48 hrs by SRB assay; type: functional, cell-based
SK-MEL-2 = experiment: Antiproliferative activity against human SK-MEL-2 cells measured after 48 hrs by SRB assay; type: functional, cell-based
K562 = experiment: Antiproliferative activity against human K562 cells measured after 48 hrs by SRB assay; type: functional, cell-based
BT-549 = experiment: Antiproliferative activity against human BT-549 cells measured after 48 hrs by SRB assay; type: functional, cell-based
RXF 393 = experiment: Antiproliferative activity against human RXF 393 cells measured after 48 hrs by SRB assay; type: functional, cell-based
NCI/ADR-RES = experiment: Antiproliferative activity against human NCI-ADR-RES cells measured after 48 hrs by SRB assay; type: functional, cell-based
UACC-257 = experiment: Antiproliferative activity against human UACC-257 cells measured after 48 hrs by SRB assay; type: functional, cell-based
[1] = biological target: Mitogen-activated protein kinase 10 (Homo sapiens, UniProt P53779); experiment: Inhibition of JNK3 (unknown origin)
UACC-62 = experiment: Antiproliferative activity against human UACC-62 cells measured after 48 hrs by SRB assay; type: functional, cell-based
KM12 = experiment: Antiproliferative activity against human KM12 cells measured after 48 hrs by SRB assay; type: functional, cell-based
U-251 = experiment: Antiproliferative activity against human U-251 cells measured after 48 hrs by SRB assay; type: functional, cell-based
NCI-H522 = experiment: Antiproliferative activity against human NCI-H522 cells measured after 48 hrs by SRB assay; type: functional, cell-based
SK-MEL-28 = experiment: Antiproliferative activity against human SK-MEL-28 cells measured after 48 hrs by SRB assay; type: functional, cell-based
MDA-MB-468 = experiment: Antiproliferative activity against human MDA-MB-468 cells measured after 48 hrs by SRB assay; type: functional, cell-based
SNB-75 = experiment: Antiproliferative activity against human SNB-75 cells measured after 48 hrs by SRB assay; type: functional, cell-based
NCI-H460 = experiment: Antiproliferative activity against human NCI-H460 cells measured after 48 hrs by SRB assay; type: functional, cell-based
786-0 = experiment: Antiproliferative activity against human 786-0 cells measured after 48 hrs by SRB assay; type: functional, cell-based
NCI-H226 = experiment: Antiproliferative activity against human NCI-H226 cells measured after 48 hrs by SRB assay; type: functional, cell-based
SR = experiment: Antiproliferative activity against human SR cells measured after 48 hrs by SRB assay; type: functional, cell-based
T47D = experiment: Antiproliferative activity against human T47D cells measured after 48 hrs by SRB assay; type: functional, cell-based
OVCAR-4 = experiment: Antiproliferative activity against human OVCAR-4 cells measured after 48 hrs by SRB assay; type: functional, cell-based

Mitogen-activated protein kinase 10, sequence (P53779 whole entry): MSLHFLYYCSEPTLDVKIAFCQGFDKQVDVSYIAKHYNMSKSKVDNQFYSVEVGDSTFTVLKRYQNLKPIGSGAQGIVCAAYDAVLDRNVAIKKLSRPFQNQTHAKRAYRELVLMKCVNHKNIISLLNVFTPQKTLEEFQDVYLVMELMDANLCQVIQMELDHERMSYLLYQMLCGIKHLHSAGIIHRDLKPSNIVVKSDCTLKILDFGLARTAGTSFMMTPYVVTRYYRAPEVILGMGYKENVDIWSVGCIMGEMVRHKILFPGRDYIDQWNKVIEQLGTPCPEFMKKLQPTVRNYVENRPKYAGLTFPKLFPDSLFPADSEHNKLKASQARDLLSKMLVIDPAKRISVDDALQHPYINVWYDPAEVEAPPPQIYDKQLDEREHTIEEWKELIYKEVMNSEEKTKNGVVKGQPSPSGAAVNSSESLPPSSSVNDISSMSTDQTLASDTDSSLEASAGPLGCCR

Compound: O=C(NCCCNc1cc(-c2cn(-c3ccccc3)nc2-c2cccc(O)c2)ccn1)Nc1ccc(F)cc1
- IC50 (SW-620; SW-620, 48 h): 3.04 µM
- TGI (SW-620; SW-620, time 48 hrs): 6.73 µM
- IC50 (HOP-62; HOP-62, 48 h): 3.24 µM
- TGI (HOP-62; HOP-62, time 48 hrs): 9.26 µM
- IC50 (HL-60(TB); HL-60, 48 h): 2.15 µM
- TGI (HL-60(TB); HL-60, time 48 hrs): 14.2 µM
- IC50 (MCF7; MCF7, 48 h): 2.32 µM
- TGI (MCF7; MCF7, time 48 hrs): 6.04 µM
- IC50 (SF-268; SF-268, 48 h): 2.61 µM
- TGI (SF-268; SF-268, time 48 hrs): 11.2 µM
- IC50 (HCT-116; HCT-116, 48 h): 1.62 µM
- TGI (HCT-116; HCT-116, time 48 hrs): 5.82 µM
- IC50 (HT-29; HT-29, 48 h): 1.09 µM
- TGI (HT-29; HT-29, time 48 hrs): 4.99 µM
- IC50 (NCI-H322M; 48 h): 3.7 µM
- TGI (NCI-H322M; time 48 hrs): 12.4 µM
- IC50 (A549; A549, 48 h): 3.12 µM
- TGI (A549; A549, time 48 hrs): > 21.7 µM
- IC50 (SF-539; SF-539, 48 h): 1.98 µM
- TGI (SF-539; SF-539, time 48 hrs): 5.38 µM
- IC50 (SN12C; 48 h): 2.79 µM
- TGI (SN12C; time 48 hrs): 8.37 µM
- IC50 (CCRF-CEM; 48 h): 1.42 µM
- TGI (CCRF-CEM; time 48 hrs): > 25 µM
- IC50 (M14; M14, 48 h): 1.57 µM
- TGI (M14; M14, time 48 hrs): 5.85 µM
- IC50 (NCI-H23; NCI-H23, 48 h): 3.11 µM
- TGI (NCI-H23; NCI-H23, time 48 hrs): 7.65 µM
- IC50 (DU-145; DU-145, 48 h): 4.22 µM
- TGI (DU-145; DU-145, time 48 hrs): 19.3 µM
- IC50 (MDA-MB-231; MDA-MB-231, 48 h): 2.18 µM
- TGI (MDA-MB-231; MDA-MB-231, time 48 hrs): 7.78 µM
- IC50 (IGROV-1; IGROV-1, 48 h): 1.23 µM
- TGI (IGROV-1; IGROV-1, time 48 hrs): 5.82 µM
- IC50 (CAKI-1; CAKI-1, 48 h): 2.04 µM
- TGI (CAKI-1; CAKI-1, time 48 hrs): 10.7 µM
- IC50 (SK-MEL-2; SK-MEL-2, 48 h): 4 µM
- TGI (SK-MEL-2; SK-MEL-2, time 48 hrs): 10.1 µM
- IC50 (K562; K562, 48 h): 0.81 µM
- TGI (K562; K562, time 48 hrs): > 14.2 µM
- IC50 (BT-549; BT-549, 48 h): 2.18 µM
- TGI (BT-549; BT-549, time 48 hrs): 11.6 µM
- IC50 (RXF 393; RXF 393, 48 h): 0.97 µM
- TGI (RXF 393; RXF 393, time 48 hrs): 4.85 µM
- IC50 (NCI/ADR-RES; 48 h): 3.51 µM
- TGI (NCI/ADR-RES; time 48 hrs): 12.5 µM
- IC50 (UACC-257; UACC-257, 48 h): 3.07 µM
- TGI (UACC-257; UACC-257, time 48 hrs): 7.54 µM
- IC50 [1]: 0.0974 µM
- IC50 (UACC-62; UACC-62, 48 h): 3.14 µM
- TGI (UACC-62; UACC-62, time 48 hrs): 6.6 µM
- IC50 (KM12; KM12, 48 h): 2.61 µM
- TGI (KM12; KM12, time 48 hrs): 5.79 µM
- IC50 (U-251; U-251, 48 h): 2.05 µM
- TGI (U-251; U-251, time 48 hrs): 7.55 µM
- IC50 (NCI-H522; NCI-H522, 48 h): 4.03 µM
- TGI (NCI-H522; NCI-H522, time 48 hrs): 9.49 µM
- IC50 (SK-MEL-28; SK-MEL-28, 48 h): 2.54 µM
- TGI (SK-MEL-28; SK-MEL-28, time 48 hrs): 5.64 µM
- IC50 (MDA-MB-468; MDA-MB-468, 48 h): 1.18 µM
- TGI (MDA-MB-468; MDA-MB-468, time 48 hrs): 4.66 µM
- IC50 (SNB-75; SNB-75, 48 h): 0.54 µM
- TGI (SNB-75; SNB-75, time 48 hrs): 3.18 µM
- IC50 (NCI-H460; NCI-H460, 48 h): 2.35 µM
- TGI (NCI-H460; NCI-H460, time 48 hrs): 5.88 µM
- IC50 (786-0; 786-0, 48 h): 0.86 µM
- TGI (786-0; 786-0, time 48 hrs): 3.61 µM
- IC50 (NCI-H226; NCI-H226, 48 h): 3.39 µM
- TGI (NCI-H226; NCI-H226, time 48 hrs): 8.91 µM
- IC50 (SR; 48 h): 1.51 µM
- TGI (SR; time 48 hrs): 13.8 µM
- IC50 (T47D; 48 h): 1.89 µM
- TGI (T47D; time 48 hrs): 11 µM
- IC50 (OVCAR-4; OVCAR-4, 48 h): 1.46 µM
- TGI (OVCAR-4; OVCAR-4, time 48 hrs): 8.21 µM
